Test results published in the supplement of paper PMC11451515.

Test system: SEM cells
Assay: cell viability relative to DMSO control; higher = less cytotoxic
Conditions: 48 h
Method in brief: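 Library compounds in DMSO were pin-dosed into 1536-well plates (5 μl) holding NOMO1 or SEM (500 cells/well) or P12-Ichikawa (1000 cells/well) leukemia cells, across an 11-point threefold series of 47 μM to 0.79 nM. Each cell line had been adapted for at least four passages in each medium. CellTiter-Glo One luminescence was read after 48 h at 37°C. Viability is the per-plate percentage relative to DMSO wells, with cell-free wells as background.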

[1] = HPLM + 10% dialyzed FBS, 0.000781 µM
[2] = HPLM + 10% dialyzed FBS, 0.00234 µM
[3] = HPLM + 10% dialyzed FBS, 0.00702 µM
[4] = HPLM + 10% dialyzed FBS, 0.0211 µM
[5] = HPLM + 10% dialyzed FBS, 0.0632 µM
[6] = HPLM + 10% dialyzed FBS, 0.19 µM
[7] = HPLM + 10% dialyzed FBS, 0.569 µM
[8] = HPLM + 10% dialyzed FBS, 1.71 µM
[9] = HPLM + 10% dialyzed FBS, 5.12 µM
[10] = HPLM + 10% dialyzed FBS, 15.4 µM
[11] = HPLM + 10% dialyzed FBS, 46.1 µM
[12] = RPMI 5 mM glucose + 10% FBS, 0.000781 µM
[13] = RPMI 5 mM glucose + 10% FBS, 0.00234 µM
[14] = RPMI 5 mM glucose + 10% FBS, 0.00702 µM
[15] = RPMI 5 mM glucose + 10% FBS, 0.0211 µM
[16] = RPMI 5 mM glucose + 10% FBS, 0.0632 µM
[17] = RPMI 5 mM glucose + 10% FBS, 0.19 µM
[18] = RPMI 5 mM glucose + 10% FBS, 0.569 µM
[19] = RPMI 5 mM glucose + 10% FBS, 1.71 µM
[20] = RPMI 5 mM glucose + 10% FBS, 5.12 µM
[21] = RPMI 5 mM glucose + 10% FBS, 15.4 µM
[22] = RPMI 5 mM glucose + 10% FBS, 46.1 µM
[23] = RPMI 5 mM glucose + 10% dialyzed FBS, 0.000781 µM
[24] = RPMI 5 mM glucose + 10% dialyzed FBS, 0.00234 µM
[25] = RPMI 5 mM glucose + 10% dialyzed FBS, 0.00702 µM
[26] = RPMI 5 mM glucose + 10% dialyzed FBS, 0.0211 µM
[27] = RPMI 5 mM glucose + 10% dialyzed FBS, 0.0632 µM
[28] = RPMI 5 mM glucose + 10% dialyzed FBS, 0.19 µM
[29] = RPMI 5 mM glucose + 10% dialyzed FBS, 0.569 µM
[30] = RPMI 5 mM glucose + 10% dialyzed FBS, 1.71 µM
[31] = RPMI 5 mM glucose + 10% dialyzed FBS, 5.12 µM
[32] = RPMI 5 mM glucose + 10% dialyzed FBS, 15.4 µM
[33] = RPMI 5 mM glucose + 10% dialyzed FBS, 46.1 µM

| Structure (SMILES) | cell viability [1] | cell viability [2] | cell viability [3] | cell viability [4] | cell viability [5] | cell viability [6] | cell viability [7] | cell viability [8] | cell viability [9] | cell viability [10] | cell viability [11] | cell viability [12] | cell viability [13] | cell viability [14] | cell viability [15] | cell viability [16] | cell viability [17] | cell viability [18] | cell viability [19] | cell viability [20] | cell viability [21] | cell viability [22] | cell viability [23] | cell viability [24] | cell viability [25] | cell viability [26] | cell viability [27] | cell viability [28] | cell viability [29] | cell viability [30] | cell viability [31] | cell viability [32] | cell viability [33] |
| --- | --- | --- | --- | --- | --- | --- | --- | --- | --- | --- | --- | --- | --- | --- | --- | --- | --- | --- | --- | --- | --- | --- | --- | --- | --- | --- | --- | --- | --- | --- | --- | --- | --- |
| O=C(CS(=O)Cc1ccco1)NC/C=C\COc1cc(CN2CCCCC2)ccn1 (configuration not stated) | 78.7% | 86.2% | 89.4% | 96.9% | 93.8% | 99.5% | 102% | 96.7% | 102% | 100% | 97.3% | 86% | 91.3% | 90.7% | 87.1% | 96.8% | 95.5% | 107% | 106% | 93.6% | 102% | 103% | 81.5% | 93.7% | 98.4% | 75.9% | 97.1% | 88.4% | 106% | 97.3% | 110% | 99.8% | 93.9% |
| O=C(Nc1c[nH]nc1-c1nc2cc(CN3CCOCC3)ccc2[nH]1)NC1CC1 | 92.3% | 85.9% | 103% | 87.9% | 40.6% | 45.9% | 26% | 16% | 6.08% | 3.77% | 2.78% | 96.7% | 90% | 107% | 101% | 22.7% | 22.5% | 17.1% | 10.4% | 3.98% | 2.18% | 2.92% | 95.1% | 93.5% | 110% | 77.2% | 26.9% | 26.8% | 22% | 11.7% | 4.09% | 2.03% | 3.29% |
| C[N]1C=C(C2=CC=CC=C12)\C3=C(\C(=O)NC3=O)C4=C[N](C5CCN(CC5)CC6=NC=CC=C6)C7=C4C=CC=C7 | 98.6% | 113% | 102% | 119% | 114% | 116% | 125% | 118% | 112% | 71.6% | 109% | 95.2% | 108% | 114% | 119% | 112% | 104% | 111% | 93.3% | 102% | 66.4% | 87.5% | 98.6% | 124% | 109% | 118% | 118% | 127% | 119% | 111% | 101% | 69.2% | 117% |
| Cc1ccc(C(=O)Nc2cccc(C(F)(F)F)c2)cc1-c1ccc2nc(NCCN3CCOCC3)ncc2c1 | 115% | 118% | 118% | 122% | 107% | 109% | 114% | 101% | 51.3% | 31.6% | 8.49% | 105% | 113% | 112% | 125% | 116% | 114% | 110% | 103% | 41.6% | 15.7% | 7.56% | 109% | 101% | 94.5% | 97% | 124% | 92.8% | 117% | 97.3% | 35.8% | 15.9% | 6.55% |
| CCCC(C)(COC(N)=O)COC(=O)NC(C)C (configuration not stated) | 87.5% | 95.9% | 117% | 111% | 139% | 120% | 120% | 131% | 126% | 123% | 130% | 97.3% | 113% | 140% | 138% | 127% | 148% | 147% | 163% | 134% | 149% | 160% | 88% | 121% | 144% | 150% | 138% | 128% | 156% | 143% | 139% | 164% | 153% |
| CCC[S+](=O)([O-])Nc1ccc(F)c(C(=O)c2c[nH]c3ncc(Cl)cc23)c1F | 108% | 137% | 121% | 123% | 123% | 121% | 129% | 103% | 107% | 17.9% | 9.67% | – | – | – | – | – | – | – | – | – | – | – | 107% | 120% | 117% | 121% | 132% | 131% | 122% | 120% | 121% | 46.9% | 9.16% |
